Results as given in BigSolDB 2.1.

Details: in water

solubility (mole fraction) (323.15 K) | solubility (mole fraction) (333.15 K) | solubility (mole fraction) (343.15 K) | Structure (SMILES) | solubility (mole fraction) (353.15 K) | solubility (mole fraction) (363.15 K) | solubility (mole fraction) (373.15 K)
 |  |  | O=Cc1ccco1 | 0.028 | 0.0314 | 0.034
 |  |  | O=Cc1ccccc1 | 0.00236 | 0.00261 | 0.0036
0.00072 | 0.00087 | 0.00099 | CCCCCC1CCC(=O)O1 (configuration not stated) | 0.00109 | 0.00118 | 0.00128
 | 0.0051 | 0.0055 | OCCc1ccccc1 | 0.0056 | 0.0065 | 0.0065
